Consider 8 compounds from PMC8557901 (Microbiology Spectrum, 2021).

In series [1] the test system is P. yoelii in HepG2-CD81 cells. The series is described as follows: Hepatic stage of P. yoelii in HepG2-CD81 cells. The series is classed as cell-based. The following applies: Plasmodium yoelii; hepatic schizonts. How it is done:
Hepatocytes were seeded into collagen-coated black 96-well plates and maintained at 37°C in 5% CO2 in complete medium. […] The infected culture plates were centrifuged for 10 min at 900 × g, allowing fast parasite sedimentation, and further incubated with serial dilutions of M1. […] DMSO was used as a negative control. The number, size, and shape of the parasites were determined using a CellInsight high-content screening platform equipped with Studio HCS software (ThermoFisher Scientific). The parasite immunostaining was done using an […]70 antibody raised in mice and a secondary anti-mouse antibody coupled to Alexa Fluor 488 ([43]). […] Thirty-seven images, representing more than 95% of the total bottom surface area of a culture well in 96-well plates, were captured for analysis. The custom script used for counting and measuring parasites first required identification of the objects based on a fluorescence intensity threshold. The object identity was then further validated based on size and morphological (shape) criteria. The presence of DAPI-associated fluorescence in the selected objects allowed their final selection and the rejection of false positives. […] The parasitic size reduction was calculated on the average object area using the total surface area of each selected object (μm^2).

Series [2] relates to P. yoelii (GFP-luc strain). Put plainly: In vivo liver-stage assay in mice infected with P. yoelii sporozoites. Further details: species or system BALB/c mice. The following applies: 50 mg/kg; blood smears days 3 and 6. How it is done:
Five mice per treatment group were used. Experimental groups were treated with 50 and 100 mg/kg of M1 intraperitoneally (i.p.). Untreated infected mice and noninfected mice (infection controls), as well as primaquine-treated (50 mg/kg) mice (control drug), were also included. The drugs were administered on days −1, 0, and +1, and mice were challenged on day zero by retroorbital injection of P. yoelii (GFP-luc strain) sporozoites (10,000 per mouse). In vivo bioluminescence imaging was performed 44 h postinfection on day 2, to assess liver-stage development. When parasites were detected in the liver, treatment was continued until day 5 and in vivo imaging was performed on days 3 and 6, to evaluate a prepatent period for the blood-stage parasites in mice after the sporozoite inoculation. In vivo imaging and blood smears were performed to monitor blood-stage development using methods described previously ([45]). This experiment was performed twice.
IVIS Spectrum (Caliper Life Science, Hanover, MD) was used to capture bioluminescence signals. Prior to analysis, the mice were injected i.p. with D-luciferin (100 mg/kg), anesthetized with isoflurane, and imaged 10 min postinjection. Images were analyzed using the Living Image 3.0 software (Caliper Life Sciences, Hanover, MD).
In order to study the in vivo efficacy of M1 without any hepatic CYP metabolism, we conducted an experiment using 1-aminobenzotriazole (ABT), a nonselective inhibitor of cytochrome P450 enzymes ([34], [35]). ABT was administered to mice i.p. 1 h before each treatment with 50 mg/kg gamhepathiopine for 3 days starting from the day before sporozoite inoculation.

Series [3] has as its system P. falciparum sporozoites invading primary human hepatocytes. The series is described as follows: Hepatocyte invasion by preincubated P. falciparum sporozoites. The following applies: reference compound; all concentrations tested. As for the experimental part: (§1) On the day of infection, 3 · 10^4 sporozoites of P. falciparum, P. yoelii, and P. cynomolgi were added to their respective host cell cultures (human, murine, and simian). The infected culture plates were centrifuged for 10 min at 900 × g, allowing fast parasite sedimentation, and further incubated with serial dilutions of M1. Culture medium containing the appropriate drug concentration was refreshed daily, and cells were fixed at 48 h postinfection (p.i.) for infections with P. yoelii, 6 days p.i. for P. falciparum, or 8 days p.i. for P. cynomolgi. For the in vitro sporozoite invasion experiments, P. falciparum sporozoites were preincubated with 1, 10, and 100 μM M1 for 1 h at room temperature before hepatocyte infections. Three hours later, after sporozoite penetration into hepatocytes, cultures were washed and then further incubated with or without the presence of the drug during 6 days. DMSO was used as a negative control.
(§2) The number, size, and shape of the parasites were determined using a CellInsight high-content screening platform equipped with Studio HCS software (ThermoFisher Scientific). […] Host cell and parasite nuclei were labeled with DAPI (4′,6-diamidino-2-phenylindole). […] The custom script used for counting and measuring parasites first required identification of the objects based on a fluorescence intensity threshold. The object identity was then further validated based on size and morphological (shape) criteria. The presence of DAPI-associated fluorescence in the selected objects allowed their final selection and the rejection of false positives. […] The parasitic size reduction was calculated on the average object area using the total surface area of each selected object (μm^2).

The subject of series [4] is P. cynomolgi liver-stage parasites in simian primary hepatocytes. The series is described as follows: In vitro liver-stage development, P. cynomolgi in simian primary hepatocytes. The class given is cell-based, Plasmodium cynomolgi.
Excerpt: (§3) Primary human hepatocytes were isolated from liver segments obtained from adult patients undergoing partial hepatectomy (Service de Chirurgie Digestive, Hépato-Bilio Pancréatique, Hôpital Pitié Salpêtrière, Paris, France). Primary simian hepatocytes were isolated from liver segments collected from healthy Macaca fascicularis monkeys from CEA, Fontenay aux Roses, France. All hepatocytes were obtained using collagenase perfusion as previously described ([40]). […] Primary murine hepatocytes were isolated from liver segments collected from BALB/c mice. Human and murine hepatocytes were used directly after their isolation. Cells were seeded in 96-well plates (Falcon; Becton Dickinson Labware Europe, France) coated with collagen I (BD Bioscience, USA) at a density of 80,000 cells per well. […] For human hepatocytes, the complete medium was supplemented with 2% dimethyl sulfoxide (DMSO; Sigma-Aldrich, USA) before infection to preserve their differentiation.
as §1, §2

The test system of series [5] is P. yoelii liver-stage parasites in murine primary hepatocytes. The series is described as follows: In vitro liver-stage development, P. yoelii in murine primary hepatocytes. The series is classed as cell-based, Plasmodium yoelii.
Excerpt: P. yoelii 230-GFP-Luc sporozoites are mutant parasites expressing a green fluorescent protein (GFP)-luciferase cassette generated by the gene out marker out (GOMO) strategy ([39]).
as §3, §1, §2

Series [6] relates to P. falciparum liver-stage parasites in human primary hepatocytes. The series is described as follows: In vitro liver-stage development, P. falciparum in human primary hepatocytes. The series is classed as cell-based, Plasmodium falciparum.
Excerpt: as §3, §1, §2

Series [7] in a line: Cytotoxicity on HepG2 cell line (MTT). The class given is cell-based. As to conditions: human, HepG2 cells. As for the experimental part: The evaluation of the cytotoxicity of the tested molecules on the HepG2 cell line was performed according to the method of Mosman ([42]) with slight modifications. […] Triplicate assays were performed for each sample. Each well was then examined under a microscope to detect possible precipitate formation before the medium was aspirated from the wells. An amount of 100 μl of MTT solution (0.5 mg/ml in medium without FBS) was then added to each well. […] After this time, the MTT solution was removed and DMSO (100 μl) was added to dissolve the resulting blue formazan crystals. Plates were shaken vigorously (700 rpm) for 10 min. The absorbance was measured at 570 nm with 630 nm as the reference wavelength using a Tecan Infinite F-200 microplate reader. DMSO was used as a blank and doxorubicin as a positive control. Cell viability was calculated as the percentage compared to the control (cells incubated without compound). […] CC50 values represent the mean values calculated from three independent experiments.

Series [8] deals with P. falciparum strain K1 in RBC. Put plainly: In vitro chemosensitivity assay, blood stage P. falciparum K1 (SYBR green I). The following applies: Plasmodium falciparum, K1; erythrocytic stage, 72 h; read-out: EC50 (μM) for P. falciparum strain K1 in RBC. The series is classed as cell-based. How it is done:
Maintenance in continuous culture was done as described previously by Trager and Jensen ([46]). Cultures were maintained in fresh A+ human erythrocytes (EFS [French Blood Bank]) at 2.5% hematocrit in complete medium (RPMI 1640 with 25 mM HEPES, 25 mM NaHCO3, 10% A+ human serum) at 37°C under a reduced-O2 atmosphere (gas mixture of 10% O2, 5% CO2, and 85% N2). Parasitemia was maintained daily between 1% and 3%. The P. falciparum drug susceptibility test was carried out by comparing quantities of DNA in treated and control cultures of parasites in human erythrocytes according to a SYBR green I fluorescence-based method ([50]) using a 96-well fluorescence plate reader. Compounds, previously dissolved in DMSO (final concentration, less than 0.5% vol/vol), were incubated in a total assay volume of 200 μl of synchronized culture suspension (2% hematocrit and 0.4% parasitemia) for 72 h in a humidified atmosphere (85% N2, 10% O2, and 5% CO2) at 37°C in 96-well flat-bottom plates. Duplicate assays were performed for each sample. After incubation, plates were frozen at −20°C for 24 h. Then, the frozen plates were thawed for 1 h at 37°C. Fifteen microliters of each sample was transferred to 96-well flat-bottom black plates (Greiner Bio-one) already containing 15 μl of the SYBR green I lysis buffer (2× SYBR green I, 20 mM Tris base, pH 7.5, 20 mM EDTA, 0.008% [wt/vol] saponin, 0.08% [wt/vol] Triton X-100). […] Plates were incubated for 15 min at 37°C and then read on a Tecan Infinite F-200 spectrophotometer with excitation and emission wavelengths at 485 and 535 nm, respectively. […] EC50K1 values represent the mean values calculated from three independent experiments.

SMILES strings stand for the structures. Where a name gives a salt, the structure may show the parent alone.

As usually defined, the EC50 is the concentration needed to bring the measured effect to its halfway point. As to `COc1cc(NC(C)CCCN)c2ncccc2c1` (stereo not shown) [Primaquine, reference compound], the EC50 amounted to 3.6 µM in series [1]; 2.72 ± 0.34 µM in series [4] (Plasmodium cynomolgi, Hepatocyte, P. cynomolgi in simian primary hepatocytes (SH), mean ± SEM of triplicate experiments, read-out: EC50 against liver-stage parasites); 0.64 ± 0.1 µM in series [5] (Plasmodium yoelii, Hepatocyte, read-out: EC50 against liver-stage parasites); 0.6 ± 0.06 µM in series [6] (Plasmodium falciparum, Hepatocyte, P. falciparum in human primary hepatocytes (HH), mean ± SEM of triplicate experiments, read-out: EC50 against liver-stage parasites). Moreover, the “blood-stage parasitemia after sporozoite infection” value in series [2] is given as “remained clear of parasitemia”. Also, the “percentage of inhibition of hepatocyte invasion” value in series [3] came out at 100%. Moreover, the “SI (selectivity index)” value in [4] (hepatocyte CC50/EC50, P. cynomolgi (SH)) was 12; in series [5] (hepatocyte CC50/EC50, P. yoelii (MH)), 110; in series [6] (hepatocyte CC50/EC50, P. falciparum (HH)), 66. The “Size reduction at 10 μM (%)” value worked out at 70% in series [4] (parasite (schizont) size, 10 μM, P. cynomolgi (SH)) and 100% in series [6] (parasite (schizont) size, 10 μM, P. falciparum (HH)).
What is called melting point is the temperature, or range, at which the solid turns liquid. One may read the CC50 as the concentration that lowers cell viability or growth by half. Read a high CC50 as lower toxicity to the cells. Consider `CC(C)(C)Nc1nc2cc(-c3ccc(CO)cc3)sc2c(=O)[nH]1` [Metabolite 7, 2-(tert-Butylamino)-6-(4-(hydroxymethyl)phenyl)thieno[3,2-d]pyrimidin-4(3H)-one], for which the melting point was 264 °C. Further, the EC50 in [1] was found to be 1 µM. The same compound showed a 50% cytotoxic concentration (CC50) at 72 h in [7] of 25 µM. Also, the EC50 in series [8] turned out to be 0.4 µM.
In series [7], `C[C@H]1c2cccc(O)c2C(=O)C2=C(O)[C@]3(O)C(=O)C(C(N)=O)=C(O)[C@@H](N(C)C)[C@@H]3[C@@H](O)[C@@H]21` [Doxycycline, reference compound] came in with a CC50 at 72 h of 20 µM. In series [8], the 50% effective concentration (EC50) was determined as 6 µM.
In series [7], `COc1cccc2c1C(=O)c1c(O)c3c(c(O)c1C2=O)C[C@@](O)(C(=O)CO)C[C@@H]3O[C@H]1C[C@H](N)[C@H](O)[C@H](C)O1` [Doxorubicin, reference compound] came in with a CC50 at 72 h of 0.2 µM.
On to `CC(C)(C)Nc1nc2cc(-c3ccc(C(=O)O)cc3)sc2c(=O)[nH]1` (as salt: hydrochloride) [Metabolite 10, 4-(2-(tert-Butylamino)-4-oxo-3,4-dihydrothieno[3,2-d]pyrimidin-6-yl)benzoic acid], for which the melting point is > 300 °C.
`O=C1C(O)=C([C@H]2CC[C@H](c3ccc(Cl)cc3)CC2)C(=O)c2ccccc21` [Atovaquone, reference compound]: the results for the EC50 in series [1] and in series [8] were 0.003 µM and 0.001 µM, respectively. The CC50 at 72 h in [7] was > 15.6 µM.
In the case of `CC(C)(C)Nc1nc2cc(-c3ccc(C=O)cc3)sc2c(=O)[nH]1` [Metabolite 8, 4-(2-(tert-Butylamino)-4-oxo-3,4-dihydrothieno[3,2-d]pyrimidin-6-yl)benzaldehyde], the melting point was 296 °C. This compound yielded a CC50 at 72 h in series [7] of 25.3 µM. Also, the EC50 in [8] was 3.1 µM.
Take `CC(C)(C)Nc1nc2cc(-c3ccc(C(=O)O)cc3)sc2c(=O)[nH]1` [Metabolite 10, 4-(2-(tert-Butylamino)-4-oxo-3,4-dihydrothieno[3,2-d]pyrimidin-6-yl)benzoic acid]: the EC50 in series [1] and in series [8] was > 10 µM throughout. Moreover, in [7], the CC50 at 72 h is > 10 µM.
